Data: publication PMC12566191, “Isolation and In Vitro Activity of Sesquiterpene Lactones from Eremanthus crotonoides as SARS-CoV-2 Protease Inhibitors and Cytotoxic Agents” (Molecules, 2025)
Where “and” joins values, the source holds several entries; their conditions need not be identical. Equal values may be shown once. Entries after “also recorded” stand apart in the source; their conditions may differ. Read-outs that look alike come from different tables or passages of the source.

How the values were obtained:
[1] = system: S. aureus; design: method as in doi:10.1007/s43450-021-00176-z; conditions: cited from earlier work
[2] = Cell viability, MTT assay, HCT-116; assay type: cell-based, human; conditions: human
Description: (§1) The cytotoxicity of crude extract and isolated compounds were evaluated against the human tumor cell lines PC-3 (prostatic carcinoma cell) and HCT-116 (colorectal carcinoma cell). Cell maintenance was performed as described in the literature. The extract and isolated compounds were tested at the concentrations of 0.05 and 50 μg/mL and 0.01 and 10 μM, respectively. Saponin digitonin (100 µM), a very potent permeabilizer of cell membranes, was used as positive control to induce 0% cell viability after 48 h of treatment.
(§2) Cell viability was determined by MTT and crystal violet (CV) assays after 48 h of incubation. Absorbance was measured using an automated microplate reader at 540 nm with a reference wavelength of 670 nm. Results are expressed as percentages relative to untreated control cultures.

[3] = Cell viability, crystal violet (CV) assay, HCT-116; assay type: cell-based; conditions: human
Description: as §1, §2

[4] = Cell viability, MTT assay, PC-3; assay type: cell-based, human; conditions: human
Description: as §1, §2

[5] = target: Recombinant SARS-CoV-2 PLpro (Severe acute respiratory syndrome coronavirus 2, UniProt P0DTD1); assay: FRET enzymatic inhibition assay, PLpro; assay type: biochemical
[6] = system: clinical isolate of S. aureus; design: method as in doi:10.1007/s43450-021-00176-z; conditions: cited from earlier work
[7] = target: Recombinant SARS-CoV-2 3CLpro (Severe acute respiratory syndrome coronavirus 2, UniProt P0DTD1); assay: FRET enzymatic inhibition assay, 3CLpro; assay type: biochemical; conditions: for inhibition at 1000 µM: read-out: Maximum inhibition (%) 3CLpro
[8] = Cell viability, crystal violet (CV) assay, PC-3; assay type: cell-based; conditions: human
Description: as §1, §2

[9] = system: glioblastoma multiforme; design: method as in doi:10.1590/S0102-695X2012005000131; conditions: cited from earlier work
[10] = system: HCT-116 (colorectal carcinoma cell); assay: Cell viability, MTT assay, HCT-116; assay type: cell-based, human; conditions: 10 µM (goyazensolide: ≤ 10 µM), 48 h, MTT and CV assays
Description: as §1, §2

[11] = system: PC-3 (prostatic carcinoma cell); assay: Cell viability, MTT assay, PC-3; assay type: cell-based, human; conditions: 10 µM (goyazensolide: ≤ 10 µM), 48 h, MTT and CV assays
Description: as §1, §2

[12] = maximum inhibition conc. 1,000 µM (highest concentration tested)
[13] = HCT-116 colorectal carcinoma cells
[14] = 125 µg/mL (101.7 µM), positive control

**Q.** Which “Concentration with antibiofilm activity” value [1] does the source give for `C=C1C(=O)OC2C=C(CO)C3=CC(=O)C(C)(CC(OC(=O)C(C)=CC)C12)O3` (stereo not drawn) [Centratherin, centratherin] here?
**A.** Its value is 128 µg/mL.

**Q.** And the viability at 48 h, 0.01 µM [2]?
**A.** The viability at 48 h, 0.01 µM was 100 ± 9.6%.

**Q.** And the viability at 48 h, 10 µM [2]?
**A.** The viability at 48 h, 10 µM was 0%.

**Q.** And the viability at 48 h, 0.01 µM [3]?
**A.** The viability at 48 h, 0.01 µM was 114 ± 5.6%.

**Q.** What about the viability at 48 h, 10 µM [3] of the same compound?
**A.** The viability at 48 h, 10 µM was 3.5 ± 9.1%.

**Q.** And the viability at 48 h, 0.01 µM [4]?
**A.** The viability at 48 h, 0.01 µM was 100 ± 13.5%.

**Q.** What about the viability at 48 h, 10 µM [4] of the same compound?
**A.** The viability at 48 h, 10 µM was 0%.

**Q.** And the IC50 ([5]; Apparent IC50 PLpro)?
**A.** Its IC50 is 12 µM and 11.9 µM.

**Q.** What about the “Maximum inhibition (%) PLpro” value [5, 12] of the same compound?
**A.** Its value is 97%.

**Q.** What about the inhibition at 1000 µM ([5]; read-out: Maximum inhibition (%) PLpro, maximum inhibition conc. 1,000 µM (highest concentration tested)) of the same compound?
**A.** The inhibition at 1000 µM was 96.77 ± 0.3%.

**Q.** What about the “Concentration inhibiting clinical isolate of S. aureus” value [6] of the same compound?
**A.** Its value is 32 µg/mL.

**Q.** And the IC50 ([7]; Apparent IC50 3CLpro)?
**A.** Its IC50 is 165 µM.

**Q.** And the inhibition at 1000 µM [7]?
**A.** The inhibition at 1000 µM was 89.5 ± 0.97%.

**Q.** What about the viability at 48 h, 0.01 µM [8] of the same compound?
**A.** The viability at 48 h, 0.01 µM was 100 ± 3.6%.

**Q.** And the viability at 48 h, 10 µM [8]?
**A.** The viability at 48 h, 10 µM was 0%.

**Q.** And the “Cytotoxic activity against glioblastoma multiforme” value [9]?
**A.** The value was “exhibited cytotoxic activity”.

**Q.** What about the “IC50 values against glioblastoma multiforme, compared with doxorubicin” value [9] of the same compound?
**A.** Its value is “comparable to the commercial anticancer drug doxorubicin”.

**Q.** For `C=C(C)C(=O)OC1CC2(C)OC(=CC2=O)C(CO)=CC2OC(=O)C(=C)C21` (stereo not drawn) [Goyazensolide, goyazensolide], which viability at 48 h, 0.01 µM [2, 13] is on record?
**A.** Its viability at 48 h, 0.01 µM is 99.6 ± 5.9%.

**Q.** What about the viability at 48 h, 10 µM [2, 13] of the same compound?
**A.** The viability at 48 h, 10 µM was 100 ± 5.8%.

**Q.** What about the “Reduction of cell viability, HCT-116” value [10] of the same compound?
**A.** The value was “no noteworthy effects; also recorded: unable to decrease cell viability; also recorded: no such effect”.

**Q.** What about the viability at 48 h, 0.01 µM [3, 13] of the same compound?
**A.** Its viability at 48 h, 0.01 µM is 113 ± 4%.

**Q.** What about the viability at 48 h, 10 µM [3, 13] of the same compound?
**A.** Its viability at 48 h, 10 µM is 92.1 ± 9%.

**Q.** What about the viability at 48 h, 0.01 µM ([4]; PC-3 prostatic carcinoma cells) of the same compound?
**A.** The viability at 48 h, 0.01 µM was 86.6 ± 4.7%.

**Q.** And the viability at 48 h, 10 µM ([4]; PC-3 prostatic carcinoma cells)?
**A.** Its viability at 48 h, 10 µM is 100 ± 18%.

**Q.** And the “Reduction of cell viability, PC-3” value [11]?
**A.** The value was “no noteworthy effects; also recorded: unable to decrease cell viability; also recorded: no such effect”.

**Q.** And the inhibition at 1000 µM ([5]; maximum inhibition conc. 1,000 µM (highest concentration tested), read-out: Maximum inhibition (%) PLpro)?
**A.** The inhibition at 1000 µM was 80.7 ± 5.9%.

**Q.** And the IC50 ([5]; read-out: Apparent IC50 PLpro)?
**A.** The IC50 was 317 µM.

**Q.** What about the “Maximum inhibition (%) 3CLpro” value [7, 12] of the same compound?
**A.** Its value is 96%.

**Q.** And the inhibition at 1000 µM [7, 12]?
**A.** Its inhibition at 1000 µM is 96.14 ± 0.01%.

**Q.** What about the IC50 ([7]; read-out: Apparent IC50 3CLpro) of the same compound?
**A.** Its IC50 is 71.1 µM and 71 µM.

**Q.** What about the viability at 48 h, 0.01 µM ([8]; PC-3 prostatic carcinoma cells) of the same compound?
**A.** Its viability at 48 h, 0.01 µM is 89.5 ± 2.8%.

**Q.** And the viability at 48 h, 10 µM ([8]; PC-3 prostatic carcinoma cells)?
**A.** Its viability at 48 h, 10 µM is 91.4 ± 1.7%.

**Q.** For `C[C@@H]1CC[C@@]2(OC1)O[C@H]1[C@@H](O)[C@H]3[C@@H]4CC[C@H]5C[C@@H](O[C@@H]6O[C@H](CO)[C@H](O[C@@H]7O[C@H](CO)[C@@H](O)[C@H](O[C@@H]8OC[C@@H](O)[C@H](O)[C@H]8O)[C@H]7O[C@@H]7O[C@H](CO)[C@H](O)[C@H](O[C@@H]8O[C@H](CO)[C@@H](O)[C@H](O)[C@H]8O)[C@H]7O)[C@H](O)[C@H]6O)[C@H](O)C[C@]5(C)[C@H]4CC[C@]3(C)[C@H]1[C@@H]2C` [DGTN, digitonin, reference compound], which viability at 48 h, 101.7 µM [2, 14] is on record?
**A.** The viability at 48 h, 101.7 µM was 0%.

**Q.** What about the viability at 48 h, 101.7 µM [3, 14] of the same compound?
**A.** The viability at 48 h, 101.7 µM was 0%.

**Q.** What about the viability at 48 h, 101.7 µM [4, 14] of the same compound?
**A.** The viability at 48 h, 101.7 µM was 0%.

**Q.** And the viability at 48 h, 101.7 µM [8, 14]?
**A.** The viability at 48 h, 101.7 µM was 0%.
